Legend:
[1] = biological target: T1, M1 muscarinic receptor (Homo sapiens, UniProt P11229); experiment: Functional mobilization of intracellular calcium (FLIPR, Fluo-3), M1-CHO cells; assay type: cell-based; settings: compound nos. 1-454; for Emax: 100% efficacy is the maximum response obtained with the Carbachol control, read-out: M1 Efficacy; for M1 Activity: M1-CHO cells, calcium mobilization
T1 construct: expressed in transfected cells; host or cells: CHO cells (M1-CHO, under zeocin and G418 selection)
T1 sequence (P11229 1-460): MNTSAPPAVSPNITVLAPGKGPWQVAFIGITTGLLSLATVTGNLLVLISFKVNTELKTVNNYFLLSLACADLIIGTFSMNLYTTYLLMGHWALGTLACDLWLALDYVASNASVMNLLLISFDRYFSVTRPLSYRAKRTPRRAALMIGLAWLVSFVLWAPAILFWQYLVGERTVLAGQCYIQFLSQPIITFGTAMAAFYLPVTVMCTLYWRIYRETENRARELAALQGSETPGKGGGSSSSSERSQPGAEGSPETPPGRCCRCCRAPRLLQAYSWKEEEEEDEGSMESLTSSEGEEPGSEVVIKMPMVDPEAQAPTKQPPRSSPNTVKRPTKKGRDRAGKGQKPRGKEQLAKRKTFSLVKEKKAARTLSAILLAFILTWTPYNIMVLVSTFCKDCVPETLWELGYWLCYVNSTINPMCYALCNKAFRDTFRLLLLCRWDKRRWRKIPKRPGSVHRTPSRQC
Summary of the method: (§1)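 CHO lines stably carrying the muscarinic subtype, dye-loaded with Fluo-3 at 37° C for 60-90 min, receive test compound in 0.5% DMSO. Agonist effects are read directly; antagonist effects against carbachol at EC80 after 15 min pre-incubation.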

[2] = biological target: T2, M4 muscarinic receptor (Homo sapiens, UniProt P08173); experiment: Functional mobilization of intracellular calcium (FLIPR, Fluo-3), M4-CHO cells; assay type: cell-based; settings: compound nos. 1-454; for Emax: 100% efficacy is the maximum response obtained with the Carbachol control, read-out: M4 Efficacy; for M4 Activity: M4-CHO cells, calcium mobilization
T2 construct: expressed in transfected cells; host or cells: CHO cells (M4-CHO, under puromycin, zeocin and blasticidin selection)
T2 sequence (P08173 1-479): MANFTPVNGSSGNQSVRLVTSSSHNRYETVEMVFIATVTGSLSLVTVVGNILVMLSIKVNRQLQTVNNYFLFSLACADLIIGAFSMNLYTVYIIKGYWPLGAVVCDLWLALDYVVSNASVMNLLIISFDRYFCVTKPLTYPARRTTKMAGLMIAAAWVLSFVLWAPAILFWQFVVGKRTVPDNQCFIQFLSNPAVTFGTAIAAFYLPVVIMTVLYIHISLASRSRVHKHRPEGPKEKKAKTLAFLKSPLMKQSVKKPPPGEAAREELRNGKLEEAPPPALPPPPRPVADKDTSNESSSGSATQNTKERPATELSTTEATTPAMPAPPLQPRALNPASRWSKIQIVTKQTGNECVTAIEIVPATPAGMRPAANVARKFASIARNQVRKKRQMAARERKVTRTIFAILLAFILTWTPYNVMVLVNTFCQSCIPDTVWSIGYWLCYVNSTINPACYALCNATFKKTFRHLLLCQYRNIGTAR
Summary of the method: as §1

| Compound | Emax [1] [%] | M1 Activity [1] | Emax [2] [%] | M4 Activity [2] |
| --- | --- | --- | --- | --- |
| CCOC(=O)N1C2CCC1CC(N1CCC3(CC1)CN(C(C)=O)c1ccccc13)C2 (centres unmarked) [compound 205] | < 65 | + (activity was measured to be greater than or equal to 3.0 μM) | < 55 | + (activity was measured to be greater than or equal to 4.0 μM) |
| CC(=O)N[C@H]1CC2(CCN(C3CCOCC3)CC2)c2ccccc21 [compound 206] | 65 to 85 | +++ (activity was measured to be less than or equal to 0.7 μM) | < 55 | + (activity was measured to be greater than or equal to 4.0 μM) |
| Fc1ccc2c(c1)C1(CCN(C[C@H]3C[C@H]4CC[C@H]3C4)CC1)CO2 [compound 207] | 65 to 85 | ++ (activity was measured to be between 0.7 μM and 3.0 μM) | < 55 | + (activity was measured to be greater than or equal to 4.0 μM) |
| Cc1ccc2c(c1)C1(CCN(C3CC4CCC3C4)CC1)CN2C(=O)c1cc(C)on1 (centres unmarked) [compound 208] | < 65 | ++ (activity was measured to be between 0.7 μM and 3.0 μM) | < 55 | + (activity was measured to be greater than or equal to 4.0 μM) |
| CN(C)C(=O)N1CC2(CCN(C3CCN(C(=O)O[C@@H]4CCOC4)CC3)CC2)c2cc(F)ccc21 [compound 209] | > 85 | ++ (activity was measured to be between 0.7 μM and 3.0 μM) | < 55 | + (activity was measured to be greater than or equal to 4.0 μM) |
| CC(=O)N1CC2(CCN(C3CCCCCC3)CC2)c2cc(F)ccc21 [compound 210] | 65 to 85 | ++ (activity was measured to be between 0.7 μM and 3.0 μM) | < 55 | + (activity was measured to be greater than or equal to 4.0 μM) |
| Cc1ccc2c(c1)C1(CCN(C3CC4CCC3C4)CC1)CN2C(=O)c1cc(C)n(C)n1 (centres unmarked) [compound 211] | 65 to 85 | + (activity was measured to be greater than or equal to 3.0 μM) | < 55 | + (activity was measured to be greater than or equal to 4.0 μM) |
| O=C(O[C@H]1CCOC1)N1C2CCC1CC(N1CCC3(CC1)COc1ccc(F)cc13)C2 (some centres unmarked) [compound 212] | < 65 | + (activity was measured to be greater than or equal to 3.0 μM) | < 55 | + (activity was measured to be greater than or equal to 4.0 μM) |
| CC(=O)NC1CC2(CCN(C[C@H]3C[C@H]4C=C[C@H]3C4)CC2)c2ccccc21 (some centres unmarked) [compound 213] | 65 to 85 | ++ (activity was measured to be between 0.7 μM and 3.0 μM) | < 55 | + (activity was measured to be greater than or equal to 4.0 μM) |
| CCOC(=O)N1C2CCC1CC(N1CCC3(CC1)CN(C(=O)C1CC1)c1ccc(F)cc13)C2 (centres unmarked) [compound 214] | < 65 | + (activity was measured to be greater than or equal to 3.0 μM) | < 55 | + (activity was measured to be greater than or equal to 4.0 μM) |
| COCCOC(=O)N1C2CCC1CC(N1CCC3(CC1)CN(C(=O)O[C@@H]1CCOC1)c1ccc(F)cc13)C2 (some centres unmarked) [compound 216] | > 85 | +++ (activity was measured to be less than or equal to 0.7 μM) | < 55 | + (activity was measured to be greater than or equal to 4.0 μM) |
| O=C(OC1CCC1)N1C2CCC1CC(N1CCC3(CC1)C(=O)Nc1ccccc13)C2 (centres unmarked) [compound 217] | < 65 | ++ (activity was measured to be between 0.7 μM and 3.0 μM) | < 55 | + (activity was measured to be greater than or equal to 4.0 μM) |
| CCNC(=O)N1C2CCC1CC(N1CCC3(CC1)COc1ccc(F)cc13)C2 (centres unmarked) [compound 219] | 65 to 85 | + (activity was measured to be greater than or equal to 3.0 μM) | < 55 | + (activity was measured to be greater than or equal to 4.0 μM) |
| CCCCOC(=O)N1CC2(CCN(C3CCN(C(=O)OCC)CC3)CC2)c2cc(F)ccc21 [compound 220] | 65 to 85 | + (activity was measured to be greater than or equal to 3.0 μM) | < 55 | + (activity was measured to be greater than or equal to 4.0 μM) |
| CCOC(=O)N1CCC(N2CCC3(CC2)CN(C(C)=O)c2ccc(-c4ccc(C(C)=O)cc4)cc23)CC1 [compound 221] | 65 to 85 | ++ (activity was measured to be between 0.7 μM and 3.0 μM) | < 55 | + (activity was measured to be greater than or equal to 4.0 μM) |
| CCOC(=O)N1C2CCC1CC(N1CCC3(CC1)CN(C(=O)c1ccc(F)cc1)c1ccc(F)cc13)C2 (centres unmarked) [compound 222] | < 65 | + (activity was measured to be greater than or equal to 3.0 μM) | < 55 | + (activity was measured to be greater than or equal to 4.0 μM) |
| CCOC(=O)N1CCC(N2CCC3(CC2)CN(C(=O)N(CC)CC)c2ccc(F)cc23)CC1 [compound 223] | < 65 | + (activity was measured to be greater than or equal to 3.0 μM) | < 55 | + (activity was measured to be greater than or equal to 4.0 μM) |
| Clc1ccc2c(c1)C1(CCN(C3CC4CCC3C4)CC1)CN2 (centres unmarked) [compound 224] | 65 to 85 | + (activity was measured to be greater than or equal to 3.0 μM) | < 55 | + (activity was measured to be greater than or equal to 4.0 μM) |
| CCOC(=O)N1CCC(N2CCC3(CC2)CN(C(C)=O)c2ccc(OC(F)(F)F)cc23)CC1 [compound 225] | < 65 | + (activity was measured to be greater than or equal to 3.0 μM) | < 55 | + (activity was measured to be greater than or equal to 4.0 μM) |
| CC(=O)N1CC2(CCN(C3CCC(C(C)C)CC3)CC2)c2cc(F)ccc21 (centres unmarked) [compound 226] | < 65 | + (activity was measured to be greater than or equal to 3.0 μM) | < 55 | + (activity was measured to be greater than or equal to 4.0 μM) |
| CS(=O)(=O)N[C@@H]1CC2(CCN(C[C@H]3C[C@H]4CC[C@H]3C4)CC2)c2ccccc21 [compound 227] | > 85 | +++ (activity was measured to be less than or equal to 0.7 μM) | > 70 | +++ (activity was measured to be less than or equal to 0.1 μM) |
| CCOC(=O)C1CCC(N2CCC3(CC2)CN(C(C)=O)c2ccc(F)cc23)CC1 (centres unmarked) [compound 228] | < 65 | + (activity was measured to be greater than or equal to 3.0 μM) | < 55 | + (activity was measured to be greater than or equal to 4.0 μM) |
| CCOC(=O)N1CCC(N2CCC3(CC2)CN(CCC(=O)CC)c2ccc(F)cc23)CC1 [compound 229] | < 65 | ++ (activity was measured to be between 0.7 μM and 3.0 μM) | > 70 | +++ (activity was measured to be less than or equal to 0.1 μM) |
| C#CCCOC(=O)N1C2CCC1CC(N1CCC3(CC1)CN(C(=O)N(C)C)c1ccc(F)cc13)C2 (centres unmarked) [compound 230] | < 65 | + (activity was measured to be greater than or equal to 3.0 μM) | > 70 | ++ (activity was measured to be between 0.1 μM and 4.0 μM) |
| Cc1ccc2c(c1)C1(CCN(C3CC4CCC3C4)CC1)CN2S(C)(=O)=O (centres unmarked) [compound 232] | < 65 | ++ (activity was measured to be between 0.7 μM and 3.0 μM) | > 70 | +++ (activity was measured to be less than or equal to 0.1 μM) |
| Cc1cc(C(=O)N2CC3(CCN(C4CC5CCC(C4)N5C(=O)O[C@H]4CCOC4)CC3)c3cc(F)ccc32)nn1C (some centres unmarked) [compound 233] | 65 to 85 | +++ (activity was measured to be less than or equal to 0.7 μM) | > 70 | +++ (activity was measured to be less than or equal to 0.1 μM) |

From patent US7858635B2 (priority 2005, dated 2010)
